Structures are written as SMILES.

This data set can be described thus: In vitro model of drug delivery: HP gel into extracted human teeth by MACROESIS vs diffusion, HP eluted into water measured by colorimetric kit / UV-Vis at 550 nm. The data set is classed as in vitro ADME. As to conditions: for HP concentration in receiving medium (distilled water): below threshold of reliable detection, excluded from analysis. As for the experimental part: MACROESIS™ drug delivery system uses an AC electrical field to push active pharmaceutical agents through biological membranes, such as peroxide gels into the layers of tooth enamel. Current methods of chair-side whitening involve applying a gel which is either self-activating, or activated by heat or UV. Another alternative involves custom trays containing the whitening agent obtained from a dentist used over a 7-10 day period at home (30 min to 2 hours per application). An in vitro model of drug delivery was used in a validity study investigating the delivery of a 35% Carbamide Peroxide gel into extracted human teeth by MACROESIS™.
Fourteen (14) freshly extracted human teeth without detectable caries or restoration were stored in distilled water at 4° C. and used within 1 month of extraction. Teeth were randomly assigned to the diffusion experimental group (6 teeth) or enhanced electrochemical delivery (MACROESIS™) experimental group (6 teeth). Two teeth were randomly assigned to a control group. The experiment was run in two rounds of six teeth each (3 from each treatment group) approximately two weeks apart to show repeatability of results.
The diffusion group received: 66±1 mg 6% HP gel applied evenly to the tooth surface for 20 minutes. The MACROESIS™ group received: 66±1 mg 6% HP gel applied evenly to the tooth surface for 20 minutes using the electrochemical drug delivery device and electrode (FIG. 5A-C). The control group contained one control tooth subjected to the diffusion treatment and one control tooth subjected to the MACROESIS™ treatment.
Following treatment, the teeth were rinsed twice in distilled water and dried. The outer surface of the teeth was covered with two layers of clear nail varnish to fill any defects. […]
The amount of H2O2 that diffused from the dentin was measured by a colorimetric oxidation-reduction reaction kit (HYDROGEN PEROXIDE CHEMets®, VACUettes® and Vacu-vials®, CHEMetrics, Inc., Calverton, Va.). HP concentration was measured by UV-Vis spectroscopy at 550 nm.

For the compound `OO` [HP, H2O2], the “HP concentration in receiving medium (distilled water)” value reads like this: (1-hour samples) less than 0.1 PPM; (48-hour samples) less than 0.1 PPM. Besides, where the note is “receiving medium removed at 1 hour, 24 hours and 48 hours”, the “time in which the majority of the HP eluted from the teeth into the water” value was “between 1 hour and 24 hours”.
